Assay results from patent US20260284018A1, “DUAL INHIBITORS OF DYRK1A AND 5-HT2 FOR TREATING A BRAIN DISORDER” (THE REGENTS OF THE UNIVERSITY OF CALIFORNIA, priority 2023, published 2026).

Key:
Test in all cases: KINOMEscan scanEDGE
Format in all cases: binding
Conditions in all cases: read-out: Percent Control
[1] = biological target: T1, ABL1(E255K)-phosphorylated (Homo sapiens, UniProt P00519, E255K)
T1 construct: purchased Eurofins DiscoverX
Description: (§1) Kinome Scan. Compound HTW_A_8 fumarate was screened against 97 kinases at a single concentration of 10 μM at Eurofins DiscoverX using their KINOMEscan™ scanEDGE assay. The results are reported as the % activity relative to DMSO control, where lower values indicate higher affinity. See Table 1 for the full kinome profile.

ABL1-nonphosphorylated = biological target: T2, ABL1-nonphosphorylated (Homo sapiens, UniProt P00519)
T2 construct: purchased Eurofins DiscoverX
Description: as §1

ACVR1B = biological target: T3, ACVR1B (Homo sapiens, UniProt P36896)
T3 construct: purchased Eurofins DiscoverX
Description: as §1

ALK = biological target: T4, ALK (Homo sapiens, UniProt Q9UM73)
T4 construct: purchased Eurofins DiscoverX
Description: as §1

AURKA = biological target: T5, AURKA (Homo sapiens, UniProt O14965)
T5 construct: purchased Eurofins DiscoverX
Description: as §1

BRAF = biological target: T6, BRAF (Homo sapiens, UniProt P15056)
T6 construct: purchased Eurofins DiscoverX
Description: as §1

CDK2 = biological target: T7, CDK2 (Homo sapiens, UniProt P24941)
T7 construct: purchased Eurofins DiscoverX
Description: as §1

CDK3 = biological target: T8, CDK3 (Homo sapiens, UniProt Q00526)
T8 construct: purchased Eurofins DiscoverX
Description: as §1

CSF1R = biological target: T9, CSF1R (Homo sapiens, UniProt P07333)
T9 construct: purchased Eurofins DiscoverX
Description: as §1

EPHA2 = biological target: T10, EPHA2 (Homo sapiens, UniProt P29317)
T10 construct: purchased Eurofins DiscoverX
Description: as §1

ERK1 = biological target: T11, ERK1 (Homo sapiens, UniProt P27361)
T11 construct: purchased Eurofins DiscoverX
Description: as §1

GSK3B = biological target: T12, GSK3B (Homo sapiens, UniProt P49841)
T12 construct: purchased Eurofins DiscoverX
Description: as §1

IGF1R = biological target: T13, IGF1R (Homo sapiens, UniProt P08069)
T13 construct: purchased Eurofins DiscoverX
Description: as §1

IKK-alpha = biological target: T14, IKK-alpha (Homo sapiens, UniProt O15111)
T14 construct: purchased Eurofins DiscoverX
Description: as §1

IKK-beta = biological target: T15, IKK-beta (Homo sapiens, UniProt O14920)
T15 construct: purchased Eurofins DiscoverX
Description: as §1

INSR = biological target: T16, INSR (Homo sapiens, UniProt P06213)
T16 construct: purchased Eurofins DiscoverX
Description: as §1

[2] = biological target: T17, JAK2(JH1domain-catalytic) (Homo sapiens, UniProt O60674)
T17 construct: JAK2(JH1domain-catalytic); purchased Eurofins DiscoverX
Description: as §1

JNK3 = biological target: T18, JNK3 (Homo sapiens, UniProt P53779)
T18 construct: purchased Eurofins DiscoverX
Description: as §1

LKB1 = biological target: T19, LKB1 (Homo sapiens, UniProt Q15831)
T19 construct: purchased Eurofins DiscoverX (KINOMEscan scanEDGE service)
Description: as §1

MET = biological target: T20, MET (Homo sapiens, UniProt P08581)
T20 construct: purchased Eurofins DiscoverX (KINOMEscan scanEDGE service)
Description: as §1

PAK1 = biological target: T21, PAK1 (Homo sapiens, UniProt Q13153)
T21 construct: purchased Eurofins DiscoverX (KINOMEscan scanEDGE service)
Description: as §1

PAK4 = biological target: T22, PAK4 (Homo sapiens, UniProt O96013)
T22 construct: purchased Eurofins DiscoverX (KINOMEscan scanEDGE service)
Description: as §1

PCTK1 = biological target: T23, PCTK1 (Homo sapiens, UniProt Q00536)
T23 construct: purchased Eurofins DiscoverX (KINOMEscan scanEDGE service)
Description: as §1

PDGFRB = biological target: T24, PDGFRB (Homo sapiens, UniProt P09619)
T24 construct: purchased Eurofins DiscoverX (KINOMEscan scanEDGE service)
Description: as §1

PDPK1 = biological target: T25, PDPK1 (Homo sapiens, UniProt O15530)
T25 construct: purchased Eurofins DiscoverX (KINOMEscan scanEDGE service)
Description: as §1

PIK3CG = biological target: T26, PIK3CG (Homo sapiens, UniProt P48736)
T26 construct: purchased Eurofins DiscoverX (KINOMEscan scanEDGE service)
Description: as §1

PLK1 = biological target: T27, PLK1 (Homo sapiens, UniProt P53350)
T27 construct: purchased Eurofins DiscoverX KINOMEscan scanEDGE
Description: as §1

PLK3 = biological target: T28, PLK3 (Homo sapiens, UniProt Q9H4B4)
T28 construct: purchased Eurofins DiscoverX KINOMEscan scanEDGE
Description: as §1

PLK4 = biological target: T29, PLK4 (Homo sapiens, UniProt O00444)
T29 construct: purchased Eurofins DiscoverX KINOMEscan scanEDGE
Description: as §1

PRKCE = biological target: T30, PRKCE (Homo sapiens, UniProt Q02156)
T30 construct: purchased Eurofins DiscoverX KINOMEscan scanEDGE
Description: as §1

RIOK2 = biological target: T31, RIOK2 (Homo sapiens, UniProt Q9BVS4)
T31 construct: purchased Eurofins DiscoverX KINOMEscan scanEDGE
Description: as §1

SNARK = biological target: T32, SNARK (Homo sapiens, UniProt Q9H093)
T32 construct: purchased Eurofins DiscoverX KINOMEscan scanEDGE
Description: as §1

SRC = biological target: T33, SRC (Homo sapiens, UniProt P12931)
T33 construct: purchased Eurofins DiscoverX KINOMEscan scanEDGE
Description: as §1

TRKA = biological target: T34, TRKA (Homo sapiens, UniProt P04629)
T34 construct: purchased Eurofins DiscoverX KINOMEscan scanEDGE
Description: as §1

[3] = biological target: T35, TYK2(JH1domain-catalytic) (Homo sapiens, UniProt P29597)
T35 construct: TYK2(JH1domain-catalytic); purchased Eurofins DiscoverX KINOMEscan scanEDGE
Description: as §1

ULK2 = biological target: T36, ULK2 (Homo sapiens, UniProt Q8IYT8)
T36 construct: purchased Eurofins DiscoverX KINOMEscan scanEDGE
Description: as §1

ZAP70 = biological target: T37, ZAP70 (Homo sapiens, UniProt P43403)
T37 construct: purchased Eurofins DiscoverX KINOMEscan scanEDGE
Description: as §1

p38-beta = biological target: T38, p38-beta (Homo sapiens, UniProt Q15759)
T38 construct: purchased Eurofins DiscoverX (KINOMEscan scanEDGE service)
Description: as §1

T5 sequence (O14965 whole entry): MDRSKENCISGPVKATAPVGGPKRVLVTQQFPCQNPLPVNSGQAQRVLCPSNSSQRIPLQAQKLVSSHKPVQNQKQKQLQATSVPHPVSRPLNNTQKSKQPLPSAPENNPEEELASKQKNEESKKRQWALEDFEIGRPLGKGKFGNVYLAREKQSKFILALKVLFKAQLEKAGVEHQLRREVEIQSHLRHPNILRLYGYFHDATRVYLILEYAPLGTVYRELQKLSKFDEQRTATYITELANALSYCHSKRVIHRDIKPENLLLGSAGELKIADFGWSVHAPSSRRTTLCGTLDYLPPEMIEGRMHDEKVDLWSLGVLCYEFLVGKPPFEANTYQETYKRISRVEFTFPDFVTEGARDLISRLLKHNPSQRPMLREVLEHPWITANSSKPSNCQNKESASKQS
T21 sequence (Q13153 whole entry): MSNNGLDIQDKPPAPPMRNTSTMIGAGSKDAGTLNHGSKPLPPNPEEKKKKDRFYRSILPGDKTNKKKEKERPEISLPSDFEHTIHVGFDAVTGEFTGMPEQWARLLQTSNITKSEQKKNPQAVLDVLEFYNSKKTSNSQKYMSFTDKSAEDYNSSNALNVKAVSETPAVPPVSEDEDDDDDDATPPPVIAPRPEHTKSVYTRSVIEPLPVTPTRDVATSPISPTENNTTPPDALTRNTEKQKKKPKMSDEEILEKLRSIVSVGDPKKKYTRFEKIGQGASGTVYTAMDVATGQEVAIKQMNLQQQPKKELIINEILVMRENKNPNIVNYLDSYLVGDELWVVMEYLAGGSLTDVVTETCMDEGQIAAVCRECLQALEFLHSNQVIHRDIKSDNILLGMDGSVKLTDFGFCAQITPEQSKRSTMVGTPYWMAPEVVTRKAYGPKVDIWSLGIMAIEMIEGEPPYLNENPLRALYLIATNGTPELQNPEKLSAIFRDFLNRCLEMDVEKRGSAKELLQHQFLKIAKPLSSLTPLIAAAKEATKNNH
T2 sequence (P00519 whole entry): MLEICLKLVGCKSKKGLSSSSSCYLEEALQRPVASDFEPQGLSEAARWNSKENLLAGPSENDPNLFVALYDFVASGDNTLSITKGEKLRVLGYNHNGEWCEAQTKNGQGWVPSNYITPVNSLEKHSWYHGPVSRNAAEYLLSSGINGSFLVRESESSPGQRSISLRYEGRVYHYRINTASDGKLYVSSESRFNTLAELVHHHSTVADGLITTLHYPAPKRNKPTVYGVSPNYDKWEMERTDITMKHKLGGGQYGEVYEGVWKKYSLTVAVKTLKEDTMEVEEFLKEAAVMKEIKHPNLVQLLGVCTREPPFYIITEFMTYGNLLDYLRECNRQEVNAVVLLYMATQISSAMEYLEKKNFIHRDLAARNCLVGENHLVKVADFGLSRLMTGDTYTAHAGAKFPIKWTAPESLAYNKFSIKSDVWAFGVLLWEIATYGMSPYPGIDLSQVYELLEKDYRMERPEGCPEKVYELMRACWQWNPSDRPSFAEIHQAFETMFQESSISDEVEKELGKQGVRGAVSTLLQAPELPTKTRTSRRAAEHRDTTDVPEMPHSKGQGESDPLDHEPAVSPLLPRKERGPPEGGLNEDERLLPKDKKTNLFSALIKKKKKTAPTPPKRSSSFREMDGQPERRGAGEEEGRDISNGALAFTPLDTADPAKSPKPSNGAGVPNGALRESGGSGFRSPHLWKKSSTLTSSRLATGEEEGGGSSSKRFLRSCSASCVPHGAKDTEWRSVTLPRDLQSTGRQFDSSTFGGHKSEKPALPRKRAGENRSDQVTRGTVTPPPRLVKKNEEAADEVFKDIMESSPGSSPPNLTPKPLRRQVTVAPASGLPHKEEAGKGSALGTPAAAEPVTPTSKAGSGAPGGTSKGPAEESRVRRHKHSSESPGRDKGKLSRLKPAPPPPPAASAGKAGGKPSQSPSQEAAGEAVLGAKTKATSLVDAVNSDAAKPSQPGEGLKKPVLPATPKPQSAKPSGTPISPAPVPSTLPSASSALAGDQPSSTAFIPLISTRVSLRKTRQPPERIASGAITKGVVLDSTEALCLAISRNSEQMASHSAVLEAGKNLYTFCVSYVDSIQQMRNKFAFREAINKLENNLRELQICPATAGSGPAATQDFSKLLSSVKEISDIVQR
T25 sequence (O15530 whole entry): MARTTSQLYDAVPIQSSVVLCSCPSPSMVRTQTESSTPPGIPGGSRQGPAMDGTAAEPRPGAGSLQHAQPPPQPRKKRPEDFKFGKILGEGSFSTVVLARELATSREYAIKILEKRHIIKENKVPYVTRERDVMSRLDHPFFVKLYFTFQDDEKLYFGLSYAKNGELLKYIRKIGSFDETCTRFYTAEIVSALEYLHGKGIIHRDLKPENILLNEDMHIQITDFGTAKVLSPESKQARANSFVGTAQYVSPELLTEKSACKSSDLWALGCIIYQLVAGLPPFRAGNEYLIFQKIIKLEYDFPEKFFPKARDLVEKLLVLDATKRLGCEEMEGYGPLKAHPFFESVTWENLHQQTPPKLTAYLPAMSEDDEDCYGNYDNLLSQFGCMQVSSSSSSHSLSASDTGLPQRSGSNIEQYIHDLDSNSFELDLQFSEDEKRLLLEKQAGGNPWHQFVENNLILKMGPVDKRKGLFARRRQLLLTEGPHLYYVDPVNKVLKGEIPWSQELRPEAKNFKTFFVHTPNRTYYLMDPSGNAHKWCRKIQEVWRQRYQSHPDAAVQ
T28 sequence (Q9H4B4 whole entry): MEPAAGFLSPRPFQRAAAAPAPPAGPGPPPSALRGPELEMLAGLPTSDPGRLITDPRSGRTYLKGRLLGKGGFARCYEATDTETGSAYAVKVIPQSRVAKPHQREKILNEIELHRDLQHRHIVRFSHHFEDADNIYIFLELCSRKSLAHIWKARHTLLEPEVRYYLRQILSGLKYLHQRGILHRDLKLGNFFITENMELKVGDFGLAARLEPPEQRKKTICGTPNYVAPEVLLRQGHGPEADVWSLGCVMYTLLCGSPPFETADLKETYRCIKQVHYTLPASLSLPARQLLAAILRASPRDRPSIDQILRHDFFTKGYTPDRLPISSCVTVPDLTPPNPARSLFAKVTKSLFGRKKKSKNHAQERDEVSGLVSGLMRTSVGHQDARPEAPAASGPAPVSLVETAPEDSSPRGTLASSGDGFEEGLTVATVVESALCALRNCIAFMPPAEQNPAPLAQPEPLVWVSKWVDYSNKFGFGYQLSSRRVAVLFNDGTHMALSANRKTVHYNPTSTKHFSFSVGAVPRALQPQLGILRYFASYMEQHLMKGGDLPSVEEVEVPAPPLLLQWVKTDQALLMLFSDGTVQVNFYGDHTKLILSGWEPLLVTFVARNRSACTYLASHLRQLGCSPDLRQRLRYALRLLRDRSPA
T34 sequence (P04629 33-796): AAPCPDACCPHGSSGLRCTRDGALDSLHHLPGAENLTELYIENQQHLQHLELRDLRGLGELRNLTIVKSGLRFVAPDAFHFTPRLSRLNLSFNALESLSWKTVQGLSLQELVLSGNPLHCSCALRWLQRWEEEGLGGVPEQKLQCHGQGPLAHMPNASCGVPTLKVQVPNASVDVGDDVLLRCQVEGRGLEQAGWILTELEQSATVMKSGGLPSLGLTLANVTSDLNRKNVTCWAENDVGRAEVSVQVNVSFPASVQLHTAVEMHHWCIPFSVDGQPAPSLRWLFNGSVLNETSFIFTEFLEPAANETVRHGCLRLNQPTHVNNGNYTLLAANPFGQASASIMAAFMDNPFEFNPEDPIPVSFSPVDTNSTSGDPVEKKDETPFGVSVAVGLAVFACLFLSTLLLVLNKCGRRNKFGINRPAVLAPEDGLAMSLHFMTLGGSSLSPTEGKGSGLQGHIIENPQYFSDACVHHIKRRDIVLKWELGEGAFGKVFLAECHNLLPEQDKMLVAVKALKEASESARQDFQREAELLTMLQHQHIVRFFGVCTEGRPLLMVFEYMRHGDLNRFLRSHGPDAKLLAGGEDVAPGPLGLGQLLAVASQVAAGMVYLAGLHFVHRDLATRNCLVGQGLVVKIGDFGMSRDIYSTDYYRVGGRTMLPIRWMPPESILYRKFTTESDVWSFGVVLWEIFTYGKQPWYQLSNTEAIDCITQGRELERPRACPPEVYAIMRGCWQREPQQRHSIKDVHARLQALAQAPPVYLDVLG
T33 sequence (P12931 whole entry): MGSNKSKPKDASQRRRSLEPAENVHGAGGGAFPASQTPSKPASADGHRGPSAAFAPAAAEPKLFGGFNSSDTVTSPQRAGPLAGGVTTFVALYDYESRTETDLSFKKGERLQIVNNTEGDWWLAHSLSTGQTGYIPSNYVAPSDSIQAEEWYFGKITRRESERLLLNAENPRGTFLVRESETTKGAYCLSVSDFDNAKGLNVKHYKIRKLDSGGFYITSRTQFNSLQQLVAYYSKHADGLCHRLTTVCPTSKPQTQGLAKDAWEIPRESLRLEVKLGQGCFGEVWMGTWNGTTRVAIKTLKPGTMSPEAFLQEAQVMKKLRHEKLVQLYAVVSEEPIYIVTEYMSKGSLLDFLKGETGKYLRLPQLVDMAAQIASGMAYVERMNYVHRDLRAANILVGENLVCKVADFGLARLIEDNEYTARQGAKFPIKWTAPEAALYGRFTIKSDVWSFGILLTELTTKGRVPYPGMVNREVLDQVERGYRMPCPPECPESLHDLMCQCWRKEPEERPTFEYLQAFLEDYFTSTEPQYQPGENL
T38 sequence (Q15759 whole entry): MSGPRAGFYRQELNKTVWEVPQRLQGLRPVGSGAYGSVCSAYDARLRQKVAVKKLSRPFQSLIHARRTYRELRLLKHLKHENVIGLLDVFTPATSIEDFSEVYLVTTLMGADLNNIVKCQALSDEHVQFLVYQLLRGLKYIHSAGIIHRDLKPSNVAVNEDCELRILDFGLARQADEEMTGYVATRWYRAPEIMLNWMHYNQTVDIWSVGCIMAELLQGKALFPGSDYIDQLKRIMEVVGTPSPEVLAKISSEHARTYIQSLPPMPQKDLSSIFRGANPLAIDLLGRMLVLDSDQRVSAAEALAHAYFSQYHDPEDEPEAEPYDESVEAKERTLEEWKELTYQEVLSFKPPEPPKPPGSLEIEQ
T1 sequence (P00519 whole entry E255K): as the sequence (P00519 whole entry) above, with E255K counted along it

COc1ccc2c3ccnc(C)c3n(CCN(C)C)c2c1.O=C(O)/C=C/C(=O)O [HTW_A_8 fumarate, 2-(7-methoxy-1-methyl-9H-pyrido[3,4-b]indol-9-yl)-N,N-dimethylethan-1-amine Fumarate Salt (2:3)]
remaining binding at 10 µM [1]: 79% | remaining binding at 10 µM (ABL1-nonphosphorylated): 79% | remaining binding at 10 µM (ACVR1B): 83% | remaining binding at 10 µM (ALK): 79% | remaining binding at 10 µM (AURKA): 100% | remaining binding at 10 µM (BRAF): 100% | remaining binding at 10 µM (CDK2): 100% | remaining binding at 10 µM (CDK3): 91% | remaining binding at 10 µM (CSF1R): 98% | remaining binding at 10 µM (EPHA2): 88% | remaining binding at 10 µM (ERK1): 85% | remaining binding at 10 µM (GSK3B): 100% | remaining binding at 10 µM (IGF1R): 85% | remaining binding at 10 µM (IKK-alpha): 100% | remaining binding at 10 µM (IKK-beta): 100% | remaining binding at 10 µM (INSR): 100% | remaining binding at 10 µM [2]: 100% | remaining binding at 10 µM (JNK3): 91% | remaining binding at 10 µM (LKB1): 71% | remaining binding at 10 µM (MET): 100% | remaining binding at 10 µM (PAK1): 100% | remaining binding at 10 µM (PAK4): 100% | remaining binding at 10 µM (PCTK1): 96% | remaining binding at 10 µM (PDGFRB): 100% | remaining binding at 10 µM (PDPK1): 76% | remaining binding at 10 µM (PIK3CG): 33% | remaining binding at 10 µM (PLK1): 100% | remaining binding at 10 µM (PLK3): 96% | remaining binding at 10 µM (PLK4): 81% | remaining binding at 10 µM (PRKCE): 100% | remaining binding at 10 µM (RIOK2): 83% | remaining binding at 10 µM (SNARK): 100% | remaining binding at 10 µM (SRC): 99% | remaining binding at 10 µM (TRKA): 93% | remaining binding at 10 µM [3]: 97% | remaining binding at 10 µM (ULK2): 100% | remaining binding at 10 µM (ZAP70): 93% | remaining binding at 10 µM (p38-beta): 98%
